In US8680012B2, “4-phenyl-pyrane-3,5-diones,4-phenyl-thiopyrane-3,6-diones and cyclohexanetriones as novel herbicides” (Syngenta Crop Protection LLC, priority 2006, dated 2014):

These molecules were tested on Alopecurus myosuroides (ALOMY) (assay: Example B pre-emergence herbicidal activity, glasshouse pot test). Settings: 312 h, rate 250 g/ha, evaluated after 13 days, read-out: Pre-emergence activity ALOMY (100=total damage to plant; 0=no damage to plant).
Assay type: in vivo
Experimental: (§1) Seeds of a variety of test species were sown in standard soil in pots. After cultivation for one day (pre-emergence) or after 8 days cultivation (post-emergence) under controlled conditions in a glasshouse (at 24/16° C., day/night; 14 hours light; 65% humidity), the plants were sprayed with an aqueous spray solution derived from the formulation of the technical active ingredient in acetone/water (50:50) solution containing 0.5% Tween 20 (polyoxyethelyene sorbitan monolaurate, CAS RN 9005-64-5). The test plants were then grown in a glasshouse under controlled conditions in a glasshouse (at 24/16° C., day/night; 14 hours light; 65% humidity) and watered twice daily. After 13 days for pre and post-emergence, the test was evaluated (100=total damage to plant; 0=no damage to plant).
(§2) Alopecurus myosuroides (ALOMY), Avena fatua (AVEFA), Setaria faberi (SETFA), Echinochloa crus-galli (ECHCG), Solanum nigrum (SOLNI) and Amaranthus retroflexus (AMARE)
Work on `CCc1ccc(-c2ccc(Cl)cc2Cl)cc1C1=C(O)C(C)(C)OC(C)C1=O` (single isomer, unassigned) [Compound A-71] yielded a pest or weed control at 250 g/ha of 40%.
`CC[C@]12CC[C@H](O1)C(=O)C(c1cc(-c3ccc(Cl)cc3)ccc1C)=C2O` (single isomer, unassigned) [Compound A-80] showed a pest or weed control at 250 g/ha of 30%.
For `CCc1ccc(-c2ccc(Cl)cc2)cc1C1=C(O)[C@@]2(C)CC[C@](C)(O2)C1=O` (single isomer, unassigned) [Compound A-83], the pest or weed control at 250 g/ha was 50%.
`CCc1ccc(-c2ccc(Cl)c(Cl)c2)cc1C1=C(O)[C@@]2(C)CC[C@H](O2)C1=O` (single isomer, unassigned) [Compound A-123] was tested, and the pest or weed control at 250 g/ha was 50%.

The molecules below were run on Amaranthus retroflexus (AMARE) in the same assay as above. Settings: 312 h, rate 250 g/ha, evaluated after 13 days, read-out: Pre-emergence activity AMARE (100=total damage to plant; 0=no damage to plant).
Assay type: in vivo
Experimental: as §1, §2
`CCc1ccc(-c2ccc(Cl)cc2Cl)cc1C1=C(O)C(C)(C)OC(C)C1=O` (single isomer, unassigned) [Compound A-71] was tested, and the pest or weed control at 250 g/ha was 0%.
`CC[C@]12CC[C@H](O1)C(=O)C(c1cc(-c3ccc(Cl)cc3)ccc1C)=C2O` (single isomer, unassigned) [Compound A-80] gave a pest or weed control at 250 g/ha of 0%.
With `CCc1ccc(-c2ccc(Cl)cc2)cc1C1=C(O)[C@@]2(C)CC[C@](C)(O2)C1=O` (single isomer, unassigned) [Compound A-83] the pest or weed control at 250 g/ha was 0%.
`CCc1ccc(-c2ccc(Cl)c(Cl)c2)cc1C1=C(O)[C@@]2(C)CC[C@H](O2)C1=O` (single isomer, unassigned) [Compound A-123] showed a pest or weed control at 250 g/ha of 0%.

What follows are molecules tested on Avena fatua (AVEFA) in the same assay as above. Settings: 312 h, rate 250 g/ha, evaluated after 13 days, read-out: Pre-emergence activity AVEFA (100=total damage to plant; 0=no damage to plant).
Assay type: in vivo
Experimental: as §1, §2
`CCc1ccc(-c2ccc(Cl)cc2Cl)cc1C1=C(O)C(C)(C)OC(C)C1=O` (single isomer, unassigned) [Compound A-71] was tested, and the pest or weed control at 250 g/ha was 20%.
`CC[C@]12CC[C@H](O1)C(=O)C(c1cc(-c3ccc(Cl)cc3)ccc1C)=C2O` (single isomer, unassigned) [Compound A-80] gave a pest or weed control at 250 g/ha of 0%.
Molecule `CCc1ccc(-c2ccc(Cl)cc2)cc1C1=C(O)[C@@]2(C)CC[C@](C)(O2)C1=O` (single isomer, unassigned) [Compound A-83] has a pest or weed control at 250 g/ha of 40%.
`CCc1ccc(-c2ccc(Cl)c(Cl)c2)cc1C1=C(O)[C@@]2(C)CC[C@H](O2)C1=O` (single isomer, unassigned) [Compound A-123] showed a pest or weed control at 250 g/ha of 80%.

These molecules were tested on Echinochloa crus-galli (ECHCG) in the same assay as above. Settings: 312 h, rate 250 g/ha, evaluated after 13 days, read-out: Pre-emergence activity ECHCG (100=total damage to plant; 0=no damage to plant).
Assay type: in vivo
Experimental: as §1, §2
`CCc1ccc(-c2ccc(Cl)cc2Cl)cc1C1=C(O)C(C)(C)OC(C)C1=O` (single isomer, unassigned) [Compound A-71] was tested, and the pest or weed control at 250 g/ha was 80%.
`CC[C@]12CC[C@H](O1)C(=O)C(c1cc(-c3ccc(Cl)cc3)ccc1C)=C2O` (single isomer, unassigned) [Compound A-80] showed a pest or weed control at 250 g/ha of 40%.
Work on `CCc1ccc(-c2ccc(Cl)cc2)cc1C1=C(O)[C@@]2(C)CC[C@](C)(O2)C1=O` (single isomer, unassigned) [Compound A-83] yielded a pest or weed control at 250 g/ha of 90%.
With `CCc1ccc(-c2ccc(Cl)c(Cl)c2)cc1C1=C(O)[C@@]2(C)CC[C@H](O2)C1=O` (single isomer, unassigned) [Compound A-123] the pest or weed control at 250 g/ha was 70%.

These molecules were tested on Setaria faberi (SETFA) in the same assay as above. Settings: 312 h, rate 250 g/ha, evaluated after 13 days, read-out: Pre-emergence activity SETFA (100=total damage to plant; 0=no damage to plant).
Assay type: in vivo
Experimental: as §1, §2
In the case of `CCc1ccc(-c2ccc(Cl)cc2Cl)cc1C1=C(O)C(C)(C)OC(C)C1=O` (single isomer, unassigned) [Compound A-71], the pest or weed control at 250 g/ha is reported as 100%.
Molecule `CC[C@]12CC[C@H](O1)C(=O)C(c1cc(-c3ccc(Cl)cc3)ccc1C)=C2O` (single isomer, unassigned) [Compound A-80] has a pest or weed control at 250 g/ha of 70%.
`CCc1ccc(-c2ccc(Cl)cc2)cc1C1=C(O)[C@@]2(C)CC[C@](C)(O2)C1=O` (single isomer, unassigned) [Compound A-83] gave a pest or weed control at 250 g/ha of 100%.
`CCc1ccc(-c2ccc(Cl)c(Cl)c2)cc1C1=C(O)[C@@]2(C)CC[C@H](O2)C1=O` (single isomer, unassigned) [Compound A-123] gave a pest or weed control at 250 g/ha of 100%.

What follows are molecules tested on Alopecurus myosuroides (ALOMY) (assay: Example B post-emergence herbicidal activity, glasshouse pot test). Settings: 312 h, rate 250 g/ha, evaluated after 13 days, read-out: Post-emergence activity ALOMY (100=total damage to plant; 0=no damage to plant).
Assay type: in vivo
Experimental: as §1, §2
Molecule `CCc1ccc(-c2ccc(Cl)cc2Cl)cc1C1=C(O)C(C)(C)OC(C)C1=O` (single isomer, unassigned) [Compound A-71] has a pest or weed control at 250 g/ha of 30%.
In the case of `CC[C@]12CC[C@H](O1)C(=O)C(c1cc(-c3ccc(Cl)cc3)ccc1C)=C2O` (single isomer, unassigned) [Compound A-80], the pest or weed control at 250 g/ha is reported as 30%.
`CCc1ccc(-c2ccc(Cl)cc2)cc1C1=C(O)[C@@]2(C)CC[C@](C)(O2)C1=O` (single isomer, unassigned) [Compound A-83] gave a pest or weed control at 250 g/ha of 80%.
`CCc1ccc(-c2ccc(Cl)c(Cl)c2)cc1C1=C(O)[C@@]2(C)CC[C@H](O2)C1=O` (single isomer, unassigned) [Compound A-123] gave a pest or weed control at 250 g/ha of 90%.

What follows are molecules tested on Amaranthus retroflexus (AMARE) in the same assay as above. Settings: 312 h, rate 250 g/ha, evaluated after 13 days, read-out: Post-emergence activity AMARE (100=total damage to plant; 0=no damage to plant).
Assay type: in vivo
Experimental: as §1, §2
In the case of `CCc1ccc(-c2ccc(Cl)cc2Cl)cc1C1=C(O)C(C)(C)OC(C)C1=O` (single isomer, unassigned) [Compound A-71], the pest or weed control at 250 g/ha is reported as 100%.
In the case of `CC[C@]12CC[C@H](O1)C(=O)C(c1cc(-c3ccc(Cl)cc3)ccc1C)=C2O` (single isomer, unassigned) [Compound A-80], the pest or weed control at 250 g/ha is reported as 0%.
Molecule `CCc1ccc(-c2ccc(Cl)cc2)cc1C1=C(O)[C@@]2(C)CC[C@](C)(O2)C1=O` (single isomer, unassigned) [Compound A-83] has a pest or weed control at 250 g/ha of 0%.
Work on `CCc1ccc(-c2ccc(Cl)c(Cl)c2)cc1C1=C(O)[C@@]2(C)CC[C@H](O2)C1=O` (single isomer, unassigned) [Compound A-123] yielded a pest or weed control at 250 g/ha of 0%.

The molecules below were run on Avena fatua (AVEFA) in the same assay as above. Settings: 312 h, rate 250 g/ha, evaluated after 13 days, read-out: Post-emergence activity AVEFA (100=total damage to plant; 0=no damage to plant).
Assay type: in vivo
Experimental: as §1, §2
`CCc1ccc(-c2ccc(Cl)cc2Cl)cc1C1=C(O)C(C)(C)OC(C)C1=O` (single isomer, unassigned) [Compound A-71] showed a pest or weed control at 250 g/ha of 30%.
With `CC[C@]12CC[C@H](O1)C(=O)C(c1cc(-c3ccc(Cl)cc3)ccc1C)=C2O` (single isomer, unassigned) [Compound A-80] the pest or weed control at 250 g/ha was 0%.
For `CCc1ccc(-c2ccc(Cl)cc2)cc1C1=C(O)[C@@]2(C)CC[C@](C)(O2)C1=O` (single isomer, unassigned) [Compound A-83], the pest or weed control at 250 g/ha was 80%.
In the case of `CCc1ccc(-c2ccc(Cl)c(Cl)c2)cc1C1=C(O)[C@@]2(C)CC[C@H](O2)C1=O` (single isomer, unassigned) [Compound A-123], the pest or weed control at 250 g/ha is reported as 70%.

The molecules below were run on Echinochloa crus-galli (ECHCG) in the same assay as above. Settings: 312 h, rate 250 g/ha, evaluated after 13 days, read-out: Post-emergence activity ECHCG (100=total damage to plant; 0=no damage to plant).
Assay type: in vivo
Experimental: as §1, §2
`CCc1ccc(-c2ccc(Cl)cc2Cl)cc1C1=C(O)C(C)(C)OC(C)C1=O` (single isomer, unassigned) [Compound A-71] gave a pest or weed control at 250 g/ha of 100%.
Work on `CC[C@]12CC[C@H](O1)C(=O)C(c1cc(-c3ccc(Cl)cc3)ccc1C)=C2O` (single isomer, unassigned) [Compound A-80] yielded a pest or weed control at 250 g/ha of 100%.
With `CCc1ccc(-c2ccc(Cl)cc2)cc1C1=C(O)[C@@]2(C)CC[C@](C)(O2)C1=O` (single isomer, unassigned) [Compound A-83] the pest or weed control at 250 g/ha was 100%.
In the case of `CCc1ccc(-c2ccc(Cl)c(Cl)c2)cc1C1=C(O)[C@@]2(C)CC[C@H](O2)C1=O` (single isomer, unassigned) [Compound A-123], the pest or weed control at 250 g/ha is reported as 100%.

Each molecule was assayed on Setaria faberi (SETFA) in the same assay as above. Settings: 312 h, rate 250 g/ha, evaluated after 13 days, read-out: Post-emergence activity SETFA (100=total damage to plant; 0=no damage to plant).
Assay type: in vivo
Experimental: as §1, §2
`CCc1ccc(-c2ccc(Cl)cc2Cl)cc1C1=C(O)C(C)(C)OC(C)C1=O` (single isomer, unassigned) [Compound A-71] was tested, and the pest or weed control at 250 g/ha was 100%.
In the case of `CC[C@]12CC[C@H](O1)C(=O)C(c1cc(-c3ccc(Cl)cc3)ccc1C)=C2O` (single isomer, unassigned) [Compound A-80], the pest or weed control at 250 g/ha is reported as 90%.
For `CCc1ccc(-c2ccc(Cl)cc2)cc1C1=C(O)[C@@]2(C)CC[C@](C)(O2)C1=O` (single isomer, unassigned) [Compound A-83], the pest or weed control at 250 g/ha was 100%.
With `CCc1ccc(-c2ccc(Cl)c(Cl)c2)cc1C1=C(O)[C@@]2(C)CC[C@H](O2)C1=O` (single isomer, unassigned) [Compound A-123] the pest or weed control at 250 g/ha was 100%.
